Data taken from PubChem BioAssay (NCI).
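48-hour exposure; five concentrations; linearly interpolated endpoints. GI50 = concentration required for 50% inhibition of growth. TGI denotes the concentration required for complete inhibition of growth.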

What follows are molecules tested on MDA-MB-468 breast (assay: inhibition of tumour cell growth, NCI panel, 48 h).
`C/C(=C(\c1ccc(O)cc1)c1ccc(OCCN2CCCCCC2)cc1)c1ccc(Cl)cc1` gave a GI50 of 1.13 µM and a TGI of 4.51 µM.
`CS(=O)(=O)c1ccc(Oc2cc(F)cc(C#N)c2)c2c1[C@H](O)C(F)(F)C2` was tested, and the GI50 was over 100 µM and the TGI was over 100 µM.
For `CCn1c(-c2nonc2N)nc2cncc(C(=O)NCCNC)c21`, the GI50 was 1.9 µM and the TGI was 14.6 µM.
In the case of `Cc1[nH]nc2ccc3nc(-c4ccc5[nH]ncc5c4)c4c(c3c12)CCCC4`, the GI50 is reported as 1.02 µM and the TGI is reported as 4.38 µM.
For `COC1=C2C[C@@H](C)C[C@@H](OC)[C@@H](O)[C@H](C)/C=C(\C)[C@@H](OC(N)=O)[C@H](OC)/C=C\C=C(/C)C(=O)NC(=CC1=O)C2=O`, the GI50 was 0.0153 µM and the TGI was 0.577 µM.
For `COc1nc(N)nc2c1ncn2[C@@H]1O[C@H](CO)[C@@H](O)[C@@H]1O`, the GI50 was over 100 µM and the TGI was over 100 µM.
`COc1ccc2cc(Cn3cc[n+](Cc4ccc5ccccc5c4)c3)ccc2c1` gave a GI50 of 0.487 µM and a TGI of 2.57 µM.
`C#C[C@]1(O)CC[C@H]2[C@@H]3CC=C4c5sc(Nc6cccc(F)c6)nc5CC[C@]4(C)[C@H]3CC[C@@]21C` showed a GI50 of 1.24 µM and a TGI of 2.91 µM.
Work on `O=C1CC[C@H](c2ccc(O)c3c2C(=O)[C@@H]2O[C@@H]2C3=O)c2cccc(O)c21` yielded a GI50 of 1.61 µM and a TGI of 4.27 µM.
`CCN(CC)CCCC(Cc1ccccc1)Nc1c2ccc(Cl)cc2nc2ccc(OC)cc12` (centres undefined) showed a GI50 of 1.7 µM and a TGI of 3.67 µM.
In the case of `COc1cc(C2CC(c3ccccc3)=NN2C(C)=O)cc(OC)c1OC` (centres undefined), the GI50 is reported as 3.34 µM and the TGI is reported as 37.1 µM.
Molecule `O=C1/C(=C/c2ccccc2F)CN(C(=O)C(Cl)Cl)C/C1=C\c1ccccc1F` has a GI50 of 0.277 µM and a TGI of 1.11 µM.
Work on `O=C(NCCNc1nccc(-c2c(-c3ccc(F)cc3)nc3sccn23)n1)c1ccccc1` yielded a GI50 of 4.48 µM and a TGI of 44.5 µM.
Work on `C=CC[C@@H]1/C=C(\C)C[C@H](C)C[C@H](OC)[C@H]2O[C@@](O)(C(=O)C(=O)N3CCCC[C@H]3C(=O)O[C@H](/C(C)=C/C3CC[C@@H](O)[C@H](OC)C3)[C@H](C)[C@@H](O)CC1=O)[C@H](C)C[C@@H]2OC` (some centres undefined) yielded a GI50 of 12.2 µM and a TGI of 27.3 µM.
With `COc1cc(NC(=O)CSc2nc3ccccc3c(=O)n2CCc2ccccc2)cc(OC)c1OC` the GI50 was 2.2 µM and the TGI was 7.13 µM.
Molecule `Cc1cc2cc3cc(C)c(N)cc3[n+](C)c2cc1N` has a GI50 of 0.243 µM and a TGI of 1.3 µM.
With `Cc1cc(C)c2nc3nc(C)cc(C)c3c(N)c2c1` the GI50 was 3.61 µM and the TGI was 14.9 µM.
Molecule H-HIIKKIRTWYRKAWHVLGKV-NH2 has a GI50 of 6.38 µM and a TGI of 39 µM.
For `COc1ccc(-c2nc(N3CCOCC3)c3sc(CN(C)c4ncc(C(=O)NO)cn4)cc3n2)cn1`, the GI50 was under 0.0104 µM and the TGI was 0.0968 µM.
Molecule `C=C(C)[C@@H]1CC[C@]2(C(=O)O)CC[C@]3(C)[C@H](CC[C@@H]4[C@@]5(C)C/C(=C/c6ccc(OC)cc6)C(=O)C(C)(C)[C@@H]5CC[C@]43C)[C@@H]12` has a GI50 of 1.81 µM and a TGI of 7 µM.
For `O=C(Cc1ccccc1)NC(c1ccc(Cl)cc1)c1c(O)ccc2ccccc12` (centres undefined), the GI50 was 1.99 µM and the TGI was 5.53 µM.
`CC1OC(n2c3ccccc3c3c4c(c5c6ccccc6[nH]c5c32)C(=O)N(CCN2CCOCC2)C4=O)CC(O)C1O` (centres undefined) showed a GI50 of 1.57 µM and a TGI of 4.57 µM.
Work on `O=C1CCC(N2Cc3c(C#CCCCNC(=O)c4cc5c(o4)C(=O)c4ccccc4C5=O)cccc3C2=O)C(=O)N1` (centres undefined) yielded a GI50 of 2.13 µM and a TGI of 6.25 µM.
Molecule `Cn1ccnc1C(=O)/C=C/c1ccc(CC(=O)Nc2ccc(F)cc2)cc1` has a GI50 of 1.72 µM and a TGI of 5.8 µM.
`CC1(C)N=C(N)N=C(N)N1c1cccc(CCCCOc2ccccc2)c1` was tested, and the GI50 was 0.0775 µM and the TGI was 4.08 µM.
With `COc1ccc(CCN2CCC(Nc3nc4ccccc4n3Cc3ccc(F)cc3)CC2)cc1` the GI50 was 1.15 µM and the TGI was 2.44 µM.
`COc1cccc(Cn2c(-c3nonc3NC(C)=O)nc3ccccc32)c1` gave a GI50 of 1.45 µM and a TGI of 6.36 µM.
Molecule `C/C(=C\CCc1ccsc1)CC/C=C(\C)CCCN1CCC(CO)CC1` has a GI50 of 1.48 µM and a TGI of 3.29 µM.
`N=c1n(Cc2ccccc2)c(N)cc(=O)n1Cc1ccccc1` was tested, and the GI50 was 4.82 µM and the TGI was 21.2 µM.
Work on `COc1ccc(-c2nn(-c3cccc(NC(=O)c4cccc(C(F)(F)F)c4)c3)cc2-c2ccncc2)cc1Cl` yielded a GI50 of 1.68 µM and a TGI of 9.61 µM.
Work on `Cc1nn(-c2ccccc2)c2nc3c(nc12)C1=NCCN1C(c1ccc(Cl)cc1)N3` (centres undefined) yielded a GI50 of 1.65 µM and a TGI of 3.23 µM.
`O=C(Nc1ccc(OCc2nnc(-c3ccccc3)o2)c(F)c1)Nc1ccc(Cl)c(C(F)(F)F)c1` gave a GI50 of 1.9 µM and a TGI of 6.93 µM.
With `CC(C)n1c(=O)n(C)c2cnc3cc(F)c(-c4ccc(OCCCN5CCCCC5)nc4)cc3c21` the GI50 was 4.98 µM and the TGI was 26 µM.
For `S=C(c1ccc2c(c1)OCO2)N1CCN(c2cccc(Cl)c2)CC1`, the GI50 was 0.34 µM and the TGI was over 36.8 µM.
With `O=C(NCCNc1nccc(-c2c(-c3cccc(O)c3)nc3sccn23)n1)Nc1cccc(C(F)(F)F)c1` the GI50 was 1.67 µM and the TGI was 3.33 µM.
Work on `O=C(CN1C(=O)S/C(=C\C(Cl)=C\c2ccccc2)C1=O)NCCc1ccc(O)cc1` yielded a GI50 of 1.27 µM and a TGI of 3.54 µM.
For `N#C/C(=C1C=C/C(=N\O)C(Cl)=C\1)c1ccccc1`, the GI50 was 0.92 µM and the TGI was 17.5 µM.
`CCN(CC)CCCCNc1ncc2cc(-c3cc(OC)cc(OC)c3)c(NC(=O)NC(C)(C)C)nc2n1` gave a GI50 of 8.81 µM and a TGI of 21.7 µM.
Molecule `Clc1ccc(C2=NN[C@H](c3cn(-c4ccccc4)nc3-c3ccccc3)C2)cc1` has a GI50 of 4.22 µM and a TGI of 18.2 µM.
`O=S(=O)(CCNCc1ccc(-c2ccc3ncnc(Nc4ccc(OCc5cccc(F)c5)c(Cl)c4)c3c2)o1)c1ccccc1` showed a GI50 of 0.217 µM and a TGI of 7.79 µM.
In the case of `CCOC(=O)c1c(Cl)c2c(n1Cc1cccc(OC)c1)-c1oncc1CC2`, the GI50 is reported as 0.652 µM and the TGI is reported as 5.87 µM.
`COc1ccc(OC)c(/C=C2\COc3ccc(O)c(O)c3C2=O)c1` showed a GI50 of 1.66 µM and a TGI of 5.25 µM.
